In the CheMixHub viscosity set:
Several values for one entry are separate records, joined by “and”; a condition that tells them apart may be missing. Equal entries are not always repeated. ± gives the uncertainty stated by the source.

Assay: xn = mol fraction of the nth substance listed

CS(C)=O + O
viscosity (303.15 K, 101 kPa, x1 = 0.01869): 0.91 ± 0.27 mPa·s | viscosity (303.15 K, 101 kPa, x1 = 0.0406): 1.05 ± 0.32 mPa·s | viscosity (303.15 K, 101 kPa, x1 = 0.05): 1.176 ± 0.011 mPa·s | viscosity (303.15 K, 101 kPa, x1 = 0.15): 2.183 ± 0.021 mPa·s | viscosity (303.15 K, 101 kPa, x1 = 0.25): 2.978 ± 0.034 mPa·s | viscosity (303.15 K, 101 kPa, x1 = 0.35): 3.26 ± 0.043 mPa·s | viscosity (303.15 K, 101 kPa, x1 = 0.48): 2.884 ± 0.045 mPa·s | viscosity (303.15 K, 101 kPa, x1 = 0.73): 2.115 ± 0.044 mPa·s | viscosity (303.15 K, 101.3 kPa, x1 = 0.012): 0.88 ± 0.023 mPa·s | viscosity (303.15 K, 101.3 kPa, x2 = 0.1906): 2.071 ± 0.054 mPa·s | viscosity (303.15 K, 101.3 kPa, x2 = 0.3252): 2.348 ± 0.061 mPa·s | viscosity (303.15 K, 101.3 kPa, x2 = 0.5203): 2.958 ± 0.077 mPa·s | viscosity (303.15 K, 101.3 kPa, x2 = 0.6501): 3.218 ± 0.084 mPa·s | viscosity (303.15 K, 101.3 kPa, x2 = 0.743): 2.942 ± 0.077 mPa·s | viscosity (303.15 K, 101.3 kPa, x2 = 0.8183): 2.402 ± 0.063 mPa·s | viscosity (303.15 K, 101.3 kPa, x2 = 0.8668): 1.941 ± 0.051 mPa·s | viscosity (303.15 K, 101.3 kPa, x2 = 0.9101): 1.536 ± 0.04 mPa·s | viscosity (303.15 K, 101.3 kPa, x2 = 0.9751): 0.981 ± 0.026 mPa·s | viscosity (308.15 K, 101 kPa, x1 = 0.05): 1.065 ± 0.01 mPa·s | viscosity (308.15 K, 101 kPa, x1 = 0.15): 1.942 ± 0.02 mPa·s | viscosity (308.15 K, 101 kPa, x1 = 0.25): 2.606 ± 0.03 mPa·s | viscosity (308.15 K, 101 kPa, x1 = 0.35): 2.84 ± 0.037 mPa·s | viscosity (308.15 K, 101 kPa, x1 = 0.48): 2.512 ± 0.039 mPa·s and 2.733 ± 0.081 mPa·s | viscosity (308.15 K, 101 kPa, x1 = 0.73): 1.86 ± 0.038 mPa·s | viscosity (308.15 K, 101.3 kPa, x1 = 0.012): 0.792 ± 0.021 mPa·s | viscosity (308.15 K, 101.3 kPa, x2 = 0.1906): 1.876 ± 0.049 mPa·s | viscosity (308.15 K, 101.3 kPa, x2 = 0.3252): 2.109 ± 0.055 mPa·s | viscosity (308.15 K, 101.3 kPa, x2 = 0.5203): 2.607 ± 0.068 mPa·s | viscosity (308.15 K, 101.3 kPa, x2 = 0.6501): 2.802 ± 0.073 mPa·s | viscosity (308.15 K, 101.3 kPa, x2 = 0.743): 2.558 ± 0.067 mPa·s | viscosity (308.15 K, 101.3 kPa, x2 = 0.8183): 2.097 ± 0.055 mPa·s | viscosity (308.15 K, 101.3 kPa, x2 = 0.8668): 1.708 ± 0.044 mPa·s | viscosity (308.15 K, 101.3 kPa, x2 = 0.9101): 1.36 ± 0.035 mPa·s | viscosity (308.15 K, 101.3 kPa, x2 = 0.9455): 1.091 ± 0.028 mPa·s | viscosity (308.15 K, 101.3 kPa, x2 = 0.9751): 0.879 ± 0.023 mPa·s | viscosity (313.15 K, 101 kPa, x1 = 0.01): 0.72 ± 0.02 mPa·s | viscosity (313.15 K, 101 kPa, x1 = 0.01869): 0.73 ± 0.22 mPa·s | viscosity (313.15 K, 101 kPa, x1 = 0.025): 0.79 ± 0.02 mPa·s | viscosity (313.15 K, 101 kPa, x1 = 0.039): 0.87 ± 0.02 mPa·s | viscosity (313.15 K, 101 kPa, x1 = 0.0406): 0.85 ± 0.26 mPa·s | viscosity (313.15 K, 101 kPa, x1 = 0.05): 0.981 ± 0.008 mPa·s | viscosity (313.15 K, 101 kPa, x1 = 0.055): 0.96 ± 0.03 mPa·s | viscosity (313.15 K, 101 kPa, x1 = 0.071): 1.07 ± 0.03 mPa·s | viscosity (313.15 K, 101 kPa, x1 = 0.09): 1.19 ± 0.03 mPa·s | viscosity (313.15 K, 101 kPa, x1 = 0.11): 1.33 ± 0.03 mPa·s | viscosity (313.15 K, 101 kPa, x1 = 0.13): 1.5 ± 0.04 mPa·s | viscosity (313.15 K, 101 kPa, x1 = 0.15): 1.704 ± 0.019 mPa·s | viscosity (313.15 K, 101 kPa, x1 = 0.16): 1.69 ± 0.04 mPa·s | viscosity (313.15 K, 101 kPa, x1 = 0.19): 1.89 ± 0.05 mPa·s
